Test results: the supplement of paper PMC10307832

Legend:
Experiment in all cases: relative viability (nuclei count vs DMSO), 5 days (fraction); higher = more cells survive
Sunitinib + Palbociclib = compound: CCN(CC)CCNC(=O)c1c(C)[nH]c(/C=C2\C(=O)Nc3ccc(F)cc32)c1C [Sunitinib] + CC(=O)c1c(C)c2cnc(Nc3ccc(N4CCNCC4)cn3)nc2n(C2CCCC2)c1=O [Palbociclib] (partner 0.5 µM)
Outline: (§1)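 Medians of duplicate plates are given as relative viability. That measure is the nuclei count in treated wells divided by the count in vehicle wells. Counts were taken on 4× images of lung cancer cell lines in 1536-well plates, 5 days after pin-tool dosing the day after seeding with one drug alone or a fixed anchor-drug dose plus five library-drug doses (not always all listed) in √10 steps.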

Sunitinib + Bortezomib = compound: CCN(CC)CCNC(=O)c1c(C)[nH]c(/C=C2\C(=O)Nc3ccc(F)cc32)c1C [Sunitinib] + CC(C)C[C@H](NC(=O)[C@H](Cc1ccccc1)NC(=O)c1cnccn1)B(O)O [Bortezomib] (partner 0.002 µM)
Outline: as §1

Sunitinib + Alpelisib = compound: CCN(CC)CCNC(=O)c1c(C)[nH]c(/C=C2\C(=O)Nc3ccc(F)cc32)c1C [Sunitinib] + Cc1nc(NC(=O)N2CCC[C@H]2C(N)=O)sc1-c1ccnc(C(C)(C)C(F)(F)F)c1 [Alpelisib] (partner 2 µM)
Outline: as §1

Sunitinib + Dasatinib = compound: CCN(CC)CCNC(=O)c1c(C)[nH]c(/C=C2\C(=O)Nc3ccc(F)cc32)c1C [Sunitinib] + Cc1nc(Nc2ncc(C(=O)Nc3c(C)cccc3Cl)s2)cc(N2CCN(CCO)CC2)n1 [Dasatinib] (partner 0.075 µM)
Outline: as §1

Row | Cell Line | relative viability (Sunitinib + Palbociclib; first compound 0.02 µM) | relative viability (Sunitinib + Palbociclib; first compound 0.06325 µM) | relative viability (Sunitinib + Palbociclib; first compound 0.2 µM) | relative viability (Sunitinib + Palbociclib; first compound 0.6325 µM) | relative viability (Sunitinib + Palbociclib; first compound 2 µM) | relative viability (Sunitinib + Bortezomib; first compound 0.02 µM) | relative viability (Sunitinib + Bortezomib; first compound 0.06325 µM) | relative viability (Sunitinib + Bortezomib; first compound 0.2 µM) | relative viability (Sunitinib + Bortezomib; first compound 0.6325 µM) | relative viability (Sunitinib + Bortezomib; first compound 2 µM) | relative viability (Sunitinib + Alpelisib; first compound 0.02 µM) | relative viability (Sunitinib + Alpelisib; first compound 0.06325 µM) | relative viability (Sunitinib + Alpelisib; first compound 0.2 µM) | relative viability (Sunitinib + Alpelisib; first compound 0.6325 µM) | relative viability (Sunitinib + Alpelisib; first compound 2 µM) | relative viability (Sunitinib + Dasatinib; first compound 0.02 µM) | relative viability (Sunitinib + Dasatinib; first compound 0.06325 µM) | relative viability (Sunitinib + Dasatinib; first compound 0.2 µM) | relative viability (Sunitinib + Dasatinib; first compound 0.6325 µM) | relative viability (Sunitinib + Dasatinib; first compound 2 µM)
1 | HCC-366 | 0.342 | 0.393 | 0.652 | 0.413 | 0.409 | 0.98 | 1.05 | 1.04 | 1.15 | 0.989 | 0.353 | 0.466 | 0.656 | 0.528 | 0.431 | 0.526 | 0.645 | 0.622 | 0.668 | 0.574
2 | A-427 | 0.508 | 0.544 | 0.568 | 0.545 | 0.546 | – | 0.987 | 0.976 | 0.986 | 0.936 | 1.06 | 1.06 | 1.15 | 1.08 | 1.05 | 0.66 | 0.641 | 0.787 | 0.723 | 0.692
3 | NCI-H2085 | 0.454 | 0.5 | 0.472 | 0.494 | 0.494 | 1 | 1.05 | – | 1.16 | 1.07 | 0.998 | – | 0.992 | 0.988 | 0.978 | 0.271 | 0.269 | 0.222 | 0.256 | 0.26
4 | EKVX | 0.423 | 0.453 | 0.508 | 0.403 | 0.463 | 1.07 | 1.04 | 1.18 | 1.06 | 1.09 | 0.907 | – | – | 0.996 | 0.909 | 0.524 | 0.638 | 0.605 | 0.669 | 0.654
5 | NCI-H2009 | 0.183 | 0.241 | 0.212 | 0.231 | 0.25 | 0.973 | – | 1.01 | 1.17 | 1.18 | 1.18 | 1.2 | 1.27 | 1.19 | 1.12 | 0.291 | 0.379 | 0.288 | 0.393 | 0.309
6 | NCI-H1651 | 0.488 | 0.539 | 0.516 | 0.498 | 0.55 | – | 1.06 | 0.987 | 0.884 | 0.968 | 0.738 | 0.969 | 1.17 | 1.02 | 0.991 | 0.389 | 0.506 | 0.59 | 0.462 | 0.527
7 | LU99A | 0.338 | 0.473 | 0.417 | 0.433 | 0.442 | 1 | 1.13 | 1.15 | 1.35 | 1.12 | 0.512 | 0.547 | 0.586 | 0.566 | – | 0.489 | 0.5 | 0.612 | 0.57 | 0.49
8 | NCI-H322M | 0.454 | 0.48 | 0.479 | 0.461 | 0.497 | 1.19 | 1.35 | 1.52 | 1.42 | 1.35 | 0.728 | 0.739 | 0.855 | 0.822 | 0.664 | 0.257 | 0.264 | 0.293 | 0.265 | 0.253
